Measured values: PubChem BioAssay (NCI)
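Interpolation was linear, between the two tested concentrations surrounding the appropriate level; five concentrations were tested over 48 hours in 96-well plates. The concentration for full growth arrest is given as TGI.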

What was measured:
Experiment in all cases: growth of human tumour cells (NCI), 48 h
DU-145 prostate = test system: DU-145 prostate
K-562 leukemia = test system: K-562 leukemia
MDA-MB-231 breast = test system: MDA-MB-231 breast
NCI-H226 lung = test system: NCI-H226 lung
EKVX NSCLC = test system: EKVX NSCLC
CAKI-1 renal = test system: CAKI-1 renal
A498 renal = test system: A498 renal
BT-549 breast = test system: BT-549 breast
HT29 colon = test system: HT29 colon
MDA-MB-435 = test system: MDA-MB-435
T-47D breast = test system: T-47D breast
IGROV1 ovarian = test system: IGROV1 ovarian
RXF 393 renal = test system: RXF 393 renal
CCRF-CEM leukemia = test system: CCRF-CEM leukemia
MCF7 breast = test system: MCF7 breast
KM12 colon = test system: KM12 colon
HCT-116 colon = test system: HCT-116 colon
HOP-92 NSCLC = test system: HOP-92 NSCLC

Structure (SMILES)	TGI (DU-145 prostate) [µM]	TGI (K-562 leukemia) [µM]	TGI (MDA-MB-231 breast) [µM]	TGI (NCI-H226 lung) [µM]	TGI (EKVX NSCLC) [µM]	TGI (CAKI-1 renal) [µM]	TGI (A498 renal) [µM]	TGI (BT-549 breast) [µM]	TGI (HT29 colon) [µM]	TGI (MDA-MB-435) [µM]	TGI (T-47D breast) [µM]	TGI (IGROV1 ovarian) [µM]	TGI (RXF 393 renal) [µM]	TGI (CCRF-CEM leukemia) [µM]	TGI (MCF7 breast) [µM]	TGI (KM12 colon) [µM]	TGI (HCT-116 colon) [µM]	TGI (HOP-92 NSCLC) [µM]
O=C1c2cc3c(cc2CC12Cc1cc4c(cc1C2=O)CCC4)CCC3	> 100	> 100	> 100	> 100	> 100	> 100	> 100	> 100	> 100	> 100	> 100	> 100	> 100	> 100	> 100	> 100	> 100	
COc1ccc(N=Nc2ccc3oc(=O)c(C(=O)Nc4ccccc4)cc3c2)cc1	> 10		> 10	> 10	> 10	> 10	> 10	> 10	> 10	> 10	> 10	> 10	> 10		> 10	> 10	> 10	> 10
CCN1CN(c2ccccc2)C2(CCN(CCCSc3ccc(F)cc3)CC2)C1=O	17.9	37.1	29	33.7	21.2	35.7		21.4	13.3	27.3	17.2	19.7	25.7	24.6	12.2	28.9	14.9	
C=C(C(=O)O)C1CCC(CC/C=C(\C)CC/C=C(\C)CCC=C(C)C)CO1 (stereo not drawn)	42.2		> 100	13.1	34.1	> 100	54.4	61.8	29.3	53.7	> 100	39.3	29.6	> 100	32.6	28.4	17.8	
COc1ccc(C2C3CCc4ccccc4C3=NN2S(=O)(=O)c2ccc(Cl)cc2)cc1 (stereo not drawn)	> 100	41.8	> 100	> 100	> 100	> 100		> 100	63.3	4.62	> 100	52.9	58.4	> 100	34.8	> 100	> 100	> 100
COc1ccc(Cc2c(N)[nH]c(=O)n(C)c2=O)cc1		> 100	> 100	> 100	> 100	> 100	> 100	> 100	> 100	> 100	> 100	> 100	> 100		22.2	> 100	> 100	> 100
Cc1cnc(/N=c2\sc(C)cn2-c2ncc(C)s2)s1	> 100	> 100	> 100	> 100	> 100			> 100	> 100	> 100	> 100	> 100	> 100	> 100	> 100	> 100	> 100	> 100
O=C(c1ccco1)n1c2ccc(Br)cc2c2nc3ccccc3nc21	> 100	> 100		> 100	> 100	> 100		> 100	> 100	> 100	> 100	> 100	> 100	> 100	> 100	97.6	> 100	> 100
c1ccc(-c2ccc(-c3cc4ccccc4[nH]3)cc2)cc1	> 100		> 100	> 100	> 100	> 100		> 100	> 100	> 100	> 100	> 100		> 100	> 100	> 100	> 100	> 100
CCN(CC)c1ccc(C2SCC(=O)N2c2ccc(NC(=O)c3ccc(N4C(=O)CSC4c4ccc(N(CC)CC)cc4)cc3)cc2)cc1 (stereo not drawn)	> 100	> 100	> 100		> 100	> 100		> 100	> 100	> 100	> 100	> 100	> 100	> 100	> 100	> 100	> 100	> 100
Cc1nc2ccc(F)cc2c2c1CCO2	> 100	> 100	93.6	> 100	> 100	96	> 100	> 100	> 100	> 100	> 100	> 100	> 100	> 100		> 100	> 100	> 100
CC1(C)C2CCC(N)(C2)C1N (stereo not drawn)	> 100	> 100		> 100	> 100	> 100	> 100	> 100		> 100	> 100	> 100	> 100	> 100	> 100	> 100	> 100	> 100
NC1CC(N)c2c(Br)sc(Br)c21 (stereo not drawn)	> 100	> 100	> 100	> 100	> 100	> 100	> 100	> 100	> 100	> 100	> 100	> 100		> 100	> 100	> 100	> 100	> 100
COC(=O)C12OC(C)(C(CC(=O)OC(C)(C)C)C1=O)C1C(=O)N(c3ccccc3)C(=O)C12 (stereo not drawn)	> 100	> 100	> 100	> 100		> 100	> 100	> 100	> 100	> 100	> 100	> 100	> 100	> 100		> 100	> 100	> 100
CCN(CCCN(CC)C(=O)Nc1ccccc1)C(=O)Nc1ccccc1	> 100	> 100	> 100	> 100	> 100	> 100		> 100	> 100	> 100	> 100	> 100	> 100	> 100	> 100	> 100	> 100	> 100
CN1CCN(c2cc3c(cc2F)c(=O)c(C(=O)O)cn3C2CC2)CC1CC#N (stereo not drawn)	> 100	> 100	> 100	> 100	> 100	> 100	> 100	> 100	> 100	> 100	> 100	> 100	> 100	> 100	> 100	> 100	> 100	
COC(=O)C1CC=C(SC(=O)c2ccccc2)N1C(=O)c1ccccc1 (stereo not drawn)	> 100	> 100	> 100		> 100	> 100	> 100	> 100	> 100	> 100	> 100	> 100	> 100		> 100	> 100	> 100	> 100
N#CCCSC1SC(=C2SC3=C(SCCS3)S2)SC1SCCC#N (stereo not drawn)	> 100	> 100	> 100		> 100	> 100	> 100	> 100	> 100	> 100	> 100	> 100	> 100	> 100	> 100		> 100	> 100
c1cc(CSP234N5CCN2CCN3CCN4CC5)ccc1CSP123N4CCN1CCN2CCN3CC4	> 100	> 100	> 100		> 100	> 100		> 100	> 100	> 100	> 100	> 100		> 100	> 100	> 100	> 100	> 100
C=CCOc1ccc(/C(N=Nc2ccccc2)=N/NC(=O)c2ccccc2)cc1OC	> 100		> 100	> 100	> 100	> 100	> 100	> 100	> 100	> 100	> 100	> 100	> 100	> 100	> 100	> 100	> 100	> 100
Cc1cc(C)nc(NC(=S)Nc2ccccc2Cl)c1	> 100	> 100		> 100	> 100	> 100	> 100	> 100	> 100	> 100	> 100	> 100	> 100	> 100	> 100	> 100	> 100	
Cc1ccccc1NC(=O)C(=O)CC(=O)c1sc(Nc2ccccc2[N+](=O)[O-])nc1C	> 100	> 100	40.2	> 100	> 100	> 100		79	> 100	> 100	68.1	> 100	89.1		70.3	> 100	> 100	59.6
N#CCC(=O)c1cc(OCc2cc(OCc3ccc(Br)cc3)cc(OCc3ccc(Br)cc3)c2)cc(OCc2cc(OCc3ccc(Br)cc3)cc(OCc3ccc(Br)cc3)c2)c1	> 100	> 100	> 100	> 100	> 100	> 100	> 100	> 100		> 100	> 100				> 100	> 100	> 100	> 100
COc1ccc(-c2cc(-c3ccc(Nc4ccnc5cc(Cl)ccc45)cc3)nc(N)c2C#N)cc1	> 100	> 100	> 100	> 100	> 100	> 100	> 100	> 100		> 100	> 100	> 100	> 100		> 100	> 100	> 100	> 100
CCO[C@@H]1CCC(S(=O)c2ccc(C)cc2)=CO1 (stereo partly drawn)	> 100	> 100	> 100	> 100	> 100	> 100	> 100	> 100	> 100	> 100	> 100	> 100	> 100		> 100	> 100	> 100	
CCOC(=O)c1sc2nc(SC)nc3c2c1NCN3c1ccc2c(c1)OCCCO2	> 100	> 100	> 100	> 100	> 100	> 100	45.8	> 100		> 100	> 100	> 100	35.6	> 100	> 100	> 100	> 100	> 100
O=C(Cn1cc(F)c(=O)[nH]c1=O)C12CC3CC(CC(C3)C1)C2	> 100	> 100	> 100		> 100	> 100	> 100	> 100	> 100	> 100	> 100	> 100	> 100	> 100	> 100	> 100	> 100	
CCOP1(=O)C=C(Sc2ccc([N+](=O)[O-])cc2[N+](=O)[O-])C(C)(C)O1 (stereo not drawn)	26.4	> 20		47.2	18.8	24.8	44.5	32.2	> 75.9	28.5	32	30.4	31.8	16.4	17.2	38.6	18.8	25.3
